# From paper PMC5602898, “Ornithine uptake and the modulation of drug sensitivity in Trypanosoma brucei” (FASEB journal : official publication of the Federation of …, 2017)
# Experiments:
# TbAAT2-4 = biological target: T1, TbAAT2-4 (Trypanosoma brucei, UniProt Q57Y06); assay: competition of radiolabelled histidine uptake in S. cerevisiae […]Δ8AA; assay type: cell-based; conditions: 200 μM histidine, 2 mM competitor, pH 5.5, 30 °C
# T1 construct: gene Tb04.1D20.560; full-length ORF amplified from T. brucei 427 genomic DNA, vector pDR197, expressed in Saccharomyces cerevisiae 22Δ8AA; no tag told
# [1] = test system: N[C@@H](Cc1c[nH]cn1)C(=O)O; assay: cells, lysate or membranes; conditions: L-[3H]histidine, labelled compound, 50 mM potassium phosphate pH 5.5, 0.6 M sorbitol, 100 mM glucose preincubation, 30 °C, empty-vector uptake subtracted
# [2] = substrate: NCCC[C@H](N)C(=O)O; assay: cells, lysate or membranes; conditions: L-[3H]ornithine, labelled compound, 50 mM potassium phosphate pH 5.5, 0.6 M sorbitol, 100 mM glucose preincubation, 30 °C, empty-vector uptake subtracted
# T1 sequence (Q57Y06 entry or part of it): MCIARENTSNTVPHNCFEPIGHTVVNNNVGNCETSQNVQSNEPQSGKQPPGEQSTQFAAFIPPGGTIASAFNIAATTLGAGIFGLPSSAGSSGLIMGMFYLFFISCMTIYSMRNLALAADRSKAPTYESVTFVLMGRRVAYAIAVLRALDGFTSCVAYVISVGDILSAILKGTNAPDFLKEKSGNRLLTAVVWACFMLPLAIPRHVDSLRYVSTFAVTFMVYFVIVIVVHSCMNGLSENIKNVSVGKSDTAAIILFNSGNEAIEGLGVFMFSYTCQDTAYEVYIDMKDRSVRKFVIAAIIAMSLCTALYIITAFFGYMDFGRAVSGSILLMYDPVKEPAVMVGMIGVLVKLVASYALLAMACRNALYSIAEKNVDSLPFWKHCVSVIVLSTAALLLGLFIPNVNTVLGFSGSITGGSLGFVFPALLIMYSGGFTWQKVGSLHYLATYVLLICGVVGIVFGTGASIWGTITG
molecule,measurement,setting,value
N=C(N)NCCC[C@H](N)C(=O)O [arginine],% of control uptake at 2 mM,TbAAT2-4,"TbAAT2-4-mediated histidine uptake was inhibited by several amino acids, including arginine and lysine"
NCCCC[C@H](N)C(=O)O [lysine],% of control uptake at 2 mM,TbAAT2-4; also supports yeast growth on lysine,"TbAAT2-4-mediated histidine uptake was inhibited by several amino acids, including arginine and lysine"
TbAAT2-4 (Trypanosoma brucei brucei TREU927),Km,[1],20.5 ± 8.6 µM
TbAAT10-1 (Trypanosoma brucei brucei TREU927) (protein) MSNVRGNITPAVVYASNEPNALNASDDGIKNYEAYEDIQSNNSESKFAPFSKLSKKIAAVIPPGGIFASAFNIAATTLGAGIFGLPSTANGSGLVMGILYLVIINCMTIYSMYNLALAAERSKALTYEGVTFVVLGRWAAYAIAAVRAFDGFTSCIAYVISVGDIFSSILKGTDAPEFWKGNTGNRLLTALLWLCCMLPLVIPRHVDSLRHVSTCAVTFMVYFVIVIVVHSCLNGLPENIKDVSVGKSDTAAIILFNSGNAAVEGLGVFMFSYTCQDTAYEIYMDMKDRSVRKFVISSAIAMCMCTVLYILTVFFGYMDFGRDVTGSILLMYDPVNEPAVMVGMIGVLVKLIASYALLAMACRNALYSIAGKNADVLPFWKHCASVVTLSVAALVLGLFIPKVNTVLGFAGSITGGSLGYIFPSLLLMYSGGFTWQRVGPFHYLVAYGLLISGVVGVVFGTGATIWGTIVG,Km,[2],4.3 ± 1.5 µM
